Experimental data from US6465429B1, “Antimicrobial cationic peptides” (priority 1995, dated 2002).
Ends that are not written are not given here.

Assays:
[1] = Synergy of MBI 26 with lysozyme and further antibiotics (reduction in MIC); assay type: cell-based; conditions: in combination with MBI 26 (1.25 μg/mL)
E. coli ML 35 = experiment: Inner membrane permeabilization (β-galactosidase, ONPG); assay type: cell-based; conditions: for Lag Time / Rate of Hydrolysis: inner membrane permeabilization; for Lag Time: E. coli ML 35; for Rate of Hydrolysis: E. coli ML 35, ONPG
Method: Inner membrane permeability was determined by measurement in E. coli ML 35 of β-galactosidase activity using ONPG as a substrate. Normally ONPG cannot pass across the cytoplasmic membrane to permit hydrolysis by the cytoplasmic enzyme β-galactosidase. However, cationic peptides, by permeabilizing the inner membrane, unmasks this enzyme leading to color development as ONP is released. […] Addition of citrate increased the lag time before the peptides were able to permeabilize the membranes. When the experiments were executed in cation adjusted media (CAMHB), the lag time was increased up to 30 minutes.

[2] = Dansyl polymyxin displacement assay; assay type: binding; conditions: Dansyl polymyxin displacement from LPS
Text: In addition, the peptides of SEQ ID NO: 5-8 also bound effectively to LPS with high affinity based on Dansyl polymyxin displacement assays (Table 5).

Red Blood Cells = experiment: Red Blood Cell lysis; assay type: cell-based
[3] = α helical content by CD spectra; assay type: physicochemical
Method: The α helical content of the peptides were measured in buffer, liposomes and 20% Hexafluoroisopropanol (HFPIP). The liposomes constituted of POPC alone or POPC PC and 30% POPG (Table 7).

A. calcoaceticus = experiment: Synergy of peptide and antibiotic, MIC and FIC (checkerboard); assay type: cell-based; conditions: Acinetobacter calcoaceticus, agent alone
Method: (§1) FICs are performed by checkerboard titrations of peptides in one dimension of a microtiter plate, and of antibiotics in the other dimension, for example. The FIC is calculated by looking at the impact of one antibiotic on the MIC of the other and vice versa. […] Preferably, an FIC of less than 0.5 is obtained for synergism. As used herein, FIC can be determined as follows: [formula]
(§2) Synergism is identified as an FIC of about ≦0.5.

E. cloacae = experiment: as above; assay type: cell-based; conditions: Enterobacter cloacae, agent alone
Method: as §1, §2

X. maltophila = experiment: as above; assay type: cell-based; conditions: agent alone
Method: as §1, §2

P. aeruginosa = experiment: microbe, parasite or virus in culture; conditions: Pseudomonas aeruginosa, agent alone
Method: as §1, §2

## CC1(C)S[C@@H]2[C@H](NC(=O)C(C(=O)O)c3ccccc3)C(=O)N2[C@H]1C(=O)O (stereo partly shown) [carbenicillin]
[1]
  reduction in MIC: 2 ×

## KWKKFIKELQKVLAPGGLLSNIVTSL [compound 493]
E. coli ML 35
  Lag Time: 136 s
  Rate of Hydrolysis: 0.14 ΔAU min^−1
[2]
  Imax: 56%
Red Blood Cells
  RBC Lysis: >55 µg/mL
[3]; 20% HFIP
  % α helicity: 42%
[3]; Buffer
  % α helicity: 0%
[3]; POPC Liposomes
  % α helicity: 18%
[3]; POPC/POPG Liposomes
  % α helicity: 20%

## Lysozyme
[1]
  reduction in MIC: > 64 ×

## H-KWKSFIKKLTSAAKKVVTTAKPLISS-OH [MBI 26]
E. coli ML 35; 4 ug peptide, +5 mM Mg
  effect of 5 mM Mg++ on inner membrane permeabilization: large inhibitory effect
E. coli ML 35; 4 ug peptide, +100 mM NaCl
  effect of 100 mM NaCl on inner membrane permeabilization: little effect
Red Blood Cells
  RBC Lysis: >55 µg/mL

## KWKSFIKNLEKVLKPGGLLSNIVTSL [compound 490]
E. coli ML 35
  Lag Time: 156 s
  Rate of Hydrolysis: 0.081 ΔAU min^−1
[2]
  Imax: 40%
Red Blood Cells
  RBC Lysis: >55 µg/mL
[3]; 20% HFIP
  % α helicity: 41%
[3]; Buffer
  % α helicity: 0%
[3]; POPC Liposomes
  % α helicity: 29%
[3]; POPC/POPG Liposomes
  % α helicity: 27%

## CC[C@H](C)[C@H](NC(=O)[C@H](CC(C)C)NC(=O)[C@H](C)NC(=O)[C@@H]1CCCN1C(=O)[C@H](CC(C)C)NC(=O)CNC(=O)[C@@H](NC(=O)[C@@H](NC(=O)[C@H](CC(C)C)NC(=O)[C@@H](NC(=O)[C@H](CCCCN)NC(=O)[C@H](CCCCN)NC(=O)[C@@H](NC(=O)[C@H](C)NC(=O)[C@@H](NC(=O)[C@@H](NC(=O)[C@H](CC(C)C)NC(=O)[C@H](CCCCN)NC(=O)[C@H](CCCCN)NC(=O)[C@@H](NC(=O)[C@H](Cc1ccccc1)NC(=O)[C@H](CCC(=O)O)NC(=O)[C@H](CCCCN)NC(=O)[C@H](Cc1c[nH]c2ccccc12)NC(=O)[C@@H](N)CCCCN)[C@@H](C)CC)[C@@H](C)O)[C@@H](C)O)C(C)C)C(C)C)[C@@H](C)O)[C@@H](C)O)C(=O)N[C@@H](CO)C(=O)O [compound 492]
E. coli ML 35
  Lag Time: 68 s
  Rate of Hydrolysis: 0.23 ΔAU min^−1
[2]
  Imax: 48%
Red Blood Cells
  RBC Lysis: >55 µg/mL
[3]; 20% HFIP
  % α helicity: 43%
[3]; Buffer
  % α helicity: 0%
[3]; POPC Liposomes
  % α helicity: 42%
[3]; POPC/POPG Liposomes
  % α helicity: 19%

## CO[C@@H]1[C@@H](OC(N)=O)[C@@H](O)[C@H](Oc2ccc3c(O)c(NC(=O)c4ccc(O)c(CC=C(C)C)c4)c(=O)oc3c2C)OC1(C)C [Novobiocin]
[1]
  reduction in MIC: > 4 ×

## KWKSFIKNLEKVLKKGPILANLVSIV [compound 491]
E. coli ML 35
  Lag Time: 152 s
  Rate of Hydrolysis: 0.14 ΔAU min^−1
[2]
  Imax: 24%
Red Blood Cells
  RBC Lysis: >55 µg/mL
[3]; 20% HFIP
  % α helicity: 44%
[3]; Buffer
  % α helicity: 0%
[3]; POPC Liposomes
  % α helicity: 0%
[3]; POPC/POPG Liposomes
  % α helicity: 15%

## CC(C)(O/N=C(\C(=O)N[C@@H]1C(=O)N2C(C(=O)[O-])=C(C[n+]3ccccc3)CS[C@H]12)c1csc(N)n1)C(=O)O [Ceftazidime]
A. calcoaceticus; A. calcoaceticus isolate 1, strain ATCC 23055
  MIC: 2 µg/mL
A. calcoaceticus; A. calcoaceticus isolate 4, strain 28
  MIC: 16 µg/mL
A. calcoaceticus; A. calcoaceticus isolate 5, strain 8220
  MIC: 16 µg/mL
A. calcoaceticus; A. calcoaceticus isolate 6, strain 8221
  MIC: 8 µg/mL
A. calcoaceticus; A. calcoaceticus isolate 7, strain 8222
  MIC: 16 µg/mL
A. calcoaceticus; A. calcoaceticus isolate 8, strain 8223
  MIC: 16 µg/mL
A. calcoaceticus; A. calcoaceticus isolate 9, strain 8224
  MIC: 64 µg/mL
A. calcoaceticus; A. calcoaceticus isolate 2, strain 23
  MIC: 128 µg/mL
E. cloacae; E. cloacae isolate 12, strain ATCC 13047
  MIC: 4 µg/mL
E. cloacae; E. cloacae isolate 13, strain 37-1
  MIC: 2 µg/mL
E. cloacae; E. cloacae isolate 14, strain 938-2
  MIC: 2 µg/mL
E. cloacae; E. cloacae isolate 15, strain B5546
  MIC: 2 µg/mL
E. cloacae; E. cloacae isolate 16, strain R4148
  MIC: 512 µg/mL
E. cloacae; E. cloacae isolate 17, strain R4148-2
  MIC: 512 µg/mL
E. cloacae; E. cloacae isolate 18, strain 3077
  MIC: 2 µg/mL
E. cloacae; E. cloacae isolate 19, strain 3356
  MIC: 128 µg/mL
E. cloacae; E. cloacae isolate 20, strain 14269
  MIC: 512 µg/mL
E. cloacae; E. cloacae isolate 21, strain 14661
  MIC: 512 µg/mL
E. cloacae; E. cloacae isolate 22, strain 18801
  MIC: 2 µg/mL
X. maltophila; X. maltophila isolate 34, strain ATCC 13637
  MIC: 64 µg/mL
X. maltophila; X. maltophila isolate 35, strain 6
  MIC: 64 µg/mL
X. maltophila; X. maltophila isolate 36, strain 16
  MIC: 32 µg/mL
X. maltophila; X. maltophila isolate 37, strain 3095
  MIC: 512 µg/mL
X. maltophila; X. maltophila isolate 39, strain B3110.1
  MIC: 64 µg/mL
X. maltophila; X. maltophila isolate 40, strain R1302-1
  MIC: 16 µg/mL
X. maltophila; X. maltophila isolate 41, strain R4230
  MIC: 4 µg/mL
X. maltophila; X. maltophila isolate 42, strain TF29-1
  MIC: 4 µg/mL
X. maltophila; X. maltophila isolate 43, strain TF29-2
  MIC: 4 µg/mL
X. maltophila; X. maltophila isolate 44, strain W6896-2
  MIC: 64 µg/mL
P. aeruginosa; P. aeruginosa isolate 23, strain ATCC 27853
  MIC: 32 µg/mL
P. aeruginosa; P. aeruginosa isolate 24, strain 34
  MIC: 32 µg/mL
P. aeruginosa; P. aeruginosa isolate 25, strain 923-1
  MIC: 4 µg/mL
P. aeruginosa; P. aeruginosa isolate 26, strain 3101
  MIC: 8 µg/mL
P. aeruginosa; P. aeruginosa isolate 27, strain 14644
  MIC: 128 µg/mL
P. aeruginosa; P. aeruginosa isolate 28, strain 15036
  MIC: 2 µg/mL
P. aeruginosa; P. aeruginosa isolate 29, strain 15545
  MIC: 8 µg/mL
P. aeruginosa; P. aeruginosa isolate 30, strain B3999-1
  MIC: 16 µg/mL
P. aeruginosa; P. aeruginosa isolate 33, strain W5483-2
  MIC: 8 µg/mL
